In the experiment the test system is L1210 leukemia ip in BDF1 mice, survival T/C. Put plainly: NCI In Vivo Anticancer Drug Screen. Data for tumor model L1210 Leukemia (intraperitoneal) in B6D2F1 (BDF1) mice. Conditions: endpoint: mean survival time, higher = longer survival. In short, it runs like this:
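Antitumor effect is assessed in tumor-bearing animals. Survival in the compound arm is compared with a vehicle-dosed control arm and expressed as their quotient.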

[1] abbreviates: dose: 100.0 mg/kg/injection, schedule: Q01DX001 (ip), vehicle: saline.
The mark [2] stands for this setting: dose: 100.0 mg/kg/injection, schedule: Q01DX001 (ip), vehicle: Klucel (hydroxypropylcellulose) (HPC).
[3] abbreviates: dose: 100.0 mg/kg/injection, schedule: Q04DX003 (ip), vehicle: Klucel (hydroxypropylcellulose) (HPC).
Where [4] appears, read: dose: 200.0 mg/kg/injection, schedule: Q01DX001 (ip), vehicle: Klucel (hydroxypropylcellulose) (HPC).
[5] abbreviates: dose: 200.0 mg/kg/injection, schedule: Q04DX003 (ip), vehicle: Klucel (hydroxypropylcellulose) (HPC).
The mark [6] stands for this setting: dose: 400.0 mg/kg/injection, schedule: Q01DX001 (ip), vehicle: Klucel (hydroxypropylcellulose) (HPC).
The mark [7] stands for this setting: dose: 100.0 mg/kg/injection, schedule: Q01DX009 (ip), vehicle: saline with Tween-80.
[8] abbreviates: dose: 200.0 mg/kg/injection, schedule: Q01DX009 (ip), vehicle: saline with Tween-80.
The mark [9] stands for this setting: dose: 400.0 mg/kg/injection, schedule: Q04DX003 (ip), vehicle: Klucel (hydroxypropylcellulose) (HPC).

Where “and” joins values, the source holds several entries; their conditions need not be identical. Equal entries are not always repeated. Inconclusive results and toxic doses are left out.

For `OCCSc1ccc2ccccc2c1`, the T/C (dose: 100.0 mg/kg/injection, schedule: Q04DX002 (ip), vehicle: saline with Tween-80) was 94 % of control; the T/C (dose: 200.0 mg/kg/injection, schedule: Q04DX002 (ip), vehicle: saline with Tween-80) was 90 % of control; the T/C (dose: 400.0 mg/kg/injection, schedule: Q04DX002 (ip), vehicle: saline with Tween-80) is 103 % of control.
For the molecule `CCOC(=O)Nc1nc(Cl)c(Cl)nc1Cl`, the T/C reads like this: (dose: 25.0 mg/kg/injection, schedule: Q01DX009 (ip), vehicle: water) 93 % of control; (dose: 50.0 mg/kg/injection, schedule: Q01DX009 (ip), vehicle: water) 102 % of control; (dose: 100.0 mg/kg/injection, schedule: Q01DX009 (ip), vehicle: water) 98 % of control; (dose: 200.0 mg/kg/injection, schedule: Q01DX009 (ip), vehicle: water) 91 % of control; (dose: 400.0 mg/kg/injection, schedule: Q01DX009 (ip), vehicle: water) 96 % of control.
With `O=C(Nc1nn[nH]n1)C(F)(F)F`, the T/C was 108 % of control under setting [1]; 103 % of control (dose: 200.0 mg/kg/injection, schedule: Q01DX001 (ip), vehicle: saline); 105 % of control (dose: 400.0 mg/kg/injection, schedule: Q01DX001 (ip), vehicle: saline).
On to `c1ccc(C(c2ccccc2)[P+](c2ccccc2)(c2ccccc2)c2ccccc2)cc1`, for which the T/C was 106 % of control and 110 % of control (dose: 0.75 mg/kg/injection, schedule: Q01DX005 (ip), vehicle: gum acacia); 106 % of control (dose: 1.5 mg/kg/injection, schedule: Q01DX005 (ip), vehicle: gum acacia); 111 % of control (dose: 1.5 mg/kg/injection, schedule: Q01DX009 (ip), vehicle: gum acacia); 111 % of control (dose: 3.0 mg/kg/injection, schedule: Q01DX009 (ip), vehicle: gum acacia); 100 % of control (dose: 3.12 mg/kg/injection, schedule: Q04DX002 (ip), vehicle: gum acacia); 95 % of control (dose: 6.25 mg/kg/injection, schedule: Q01DX005 (ip), vehicle: gum acacia). In addition, the T/C (dose: 6.25 mg/kg/injection, schedule: Q04DX002 (ip), vehicle: gum acacia) is 95 % of control; the T/C (dose: 12.5 mg/kg/injection, schedule: Q04DX002 (ip), vehicle: gum acacia) was 111 % of control and 92 % of control.
As to `CCOP(=O)(OCC)Oc1ccc(Sc2ccc(OP(=O)(OCC)OCC)cc2)cc1`, the T/C under setting [1] is 108 % of control.
Turning to `CCOC(=O)c1[nH]c(C)c(CCC(=O)O)c1C`, the T/C was 95 % of control (dose: 12.0 mg/kg/injection, schedule: Q04DX003 (ip), vehicle: Klucel (hydroxypropylcellulose) (HPC)); 98 % of control (dose: 25.0 mg/kg/injection, schedule: Q04DX003 (ip), vehicle: Klucel (hydroxypropylcellulose) (HPC)); 104 % of control (dose: 50.0 mg/kg/injection, schedule: Q04DX003 (ip), vehicle: Klucel (hydroxypropylcellulose) (HPC)); 97 % of control under setting [2]; 103 % of control under setting [3]; 97 % of control under setting [4]. The T/C by setting is: under setting [5], 98 % of control; under setting [6], 101 % of control.
Consider `O=C(Nc1cccc(NC(=O)Nc2cccc(C3=NCCN3)c2)c1)Nc1cccc(C2=NCCN2)c1`, for which the T/C (dose: 16.4 mg/kg/injection, schedule: Q01DX Z (ip), vehicle: carboxymethylcellulose (CMC)) is 121 % of control; the T/C (dose: 27.0 mg/kg/injection, schedule: Q01DX Z (ip), vehicle: carboxymethylcellulose (CMC)) is 156 % of control; the T/C (dose: 37.0 mg/kg/injection, schedule: Q01DX Z (ip), vehicle: carboxymethylcellulose (CMC)) is 121 % of control; the T/C (dose: 55.5 mg/kg/injection, schedule: Q01DX Z (ip), vehicle: carboxymethylcellulose (CMC)) is 123 % of control; the T/C (dose: 66.0 mg/kg/injection, schedule: Q01DX Z (ip), vehicle: carboxymethylcellulose (CMC)) was 107 % of control; the T/C (dose: 83.3 mg/kg/injection, schedule: Q01DX Z (ip), vehicle: carboxymethylcellulose (CMC)) was 121 % of control. In addition, the T/C is 107 % of control (dose: 90.0 mg/kg/injection, schedule: Q01DX Z (ip), vehicle: saline); 101 % of control (dose: 125.0 mg/kg/injection, schedule: Q01DX Z (ip), vehicle: carboxymethylcellulose (CMC)); 104 % of control (dose: 187.5 mg/kg/injection, schedule: Q01DX Z (ip), vehicle: carboxymethylcellulose (CMC)).
`CCOC(=O)c1c(-c2ccccc2)cn2c1OC(C)CC2(C)C` (stereo not given): the T/C runs as follows: under setting [2], 105 % of control; under setting [4], 100 % of control; under setting [6], 93 % of control.
`Cc1cc([N+](=O)[O-])ccn1`: the T/C is 94 % of control under setting [7] and 93 % of control under setting [8].
Turning to `Cc1cc(/C=N\N=C(N)N)c(C)n1-c1ccccc1`, the T/C was 92 % of control (dose: 15.0 mg/kg/injection, schedule: Q01DX Z (ip), vehicle: carboxymethylcellulose (CMC)); 95 % of control (dose: 30.0 mg/kg/injection, schedule: Q01DX Z (ip), vehicle: carboxymethylcellulose (CMC)); 89 % of control (dose: 60.0 mg/kg/injection, schedule: Q01DX Z (ip), vehicle: carboxymethylcellulose (CMC)); 106 % of control (dose: 60.0 mg/kg/injection, schedule: Q01DX Z (oral), vehicle: carboxymethylcellulose (CMC)); 97 % of control (dose: 120.0 mg/kg/injection, schedule: Q01DX Z (ip), vehicle: carboxymethylcellulose (CMC)); 101 % of control (dose: 120.0 mg/kg/injection, schedule: Q01DX Z (oral), vehicle: carboxymethylcellulose (CMC)). The T/C was 95 % of control and 100 % of control (dose: 240.0 mg/kg/injection, schedule: Q01DX Z (oral), vehicle: carboxymethylcellulose (CMC)); 95 % of control and 102 % of control (dose: 480.0 mg/kg/injection, schedule: Q01DX Z (oral), vehicle: carboxymethylcellulose (CMC)); 103 % of control (dose: 960.0 mg/kg/injection, schedule: Q01DX Z (oral), vehicle: carboxymethylcellulose (CMC)); 107 % of control (dose: 1920.0 mg/kg/injection, schedule: Q01DX Z (oral), vehicle: carboxymethylcellulose (CMC)).
`CNC(=O)c1ccc[n+](Cc2ccccc2)c1`: the T/C was 94 % of control (dose: 18.75 mg/kg/injection, schedule: Q01DX009 (ip), vehicle: saline); 100 % of control (dose: 37.5 mg/kg/injection, schedule: Q01DX009 (ip), vehicle: saline); 97 % of control (dose: 37.5 mg/kg/injection, schedule: Q04DX003 (ip), vehicle: saline); 106 % of control (dose: 75.0 mg/kg/injection, schedule: Q01DX001 (ip), vehicle: saline); 92 % of control (dose: 75.0 mg/kg/injection, schedule: Q01DX009 (ip), vehicle: saline); 101 % of control (dose: 75.0 mg/kg/injection, schedule: Q04DX003 (ip), vehicle: saline). Moreover, the T/C reads like this: (dose: 150.0 mg/kg/injection, schedule: Q01DX001 (ip), vehicle: saline) 101 % of control; (dose: 150.0 mg/kg/injection, schedule: Q04DX003 (ip), vehicle: saline) 100 % of control.
Take `CCOC(=O)c1ccc(C)cc1Nc1ccccc1C(F)(F)F`: the T/C reads like this: under setting [3], 90 % of control; under setting [5], 94 % of control; under setting [9], 95 % of control.
For the molecule `Cc1ccc(C(Br)C2=CC(C)(C)c3ccccc3C2=O)cc1` (stereo not given), the T/C is 106 % of control (dose: 100.0 mg/kg/injection, schedule: Q01DX009 (ip), vehicle: Klucel (hydroxypropylcellulose) (HPC)); 106 % of control under setting [3]; 101 % of control (dose: 200.0 mg/kg/injection, schedule: Q01DX009 (ip), vehicle: Klucel (hydroxypropylcellulose) (HPC)); 104 % of control under setting [5]; 98 % of control (dose: 400.0 mg/kg/injection, schedule: Q01DX009 (ip), vehicle: Klucel (hydroxypropylcellulose) (HPC)); 104 % of control under setting [9].
Take `O=C(CCl)c1ccccc1`: the T/C runs as follows: (dose: 100.0 mg/kg/injection, schedule: Q01DX001 (ip), vehicle: carboxymethylcellulose (CMC)) 91 % of control; (dose: 200.0 mg/kg/injection, schedule: Q01DX001 (ip), vehicle: carboxymethylcellulose (CMC)) 95 % of control; (dose: 400.0 mg/kg/injection, schedule: Q01DX001 (ip), vehicle: carboxymethylcellulose (CMC)) 97 % of control.
On to `OC1CCCCC1(c1ccccc1)c1ccccc1` (stereo not given), for which the T/C was 94 % of control (dose: 50.0 mg/kg/injection, schedule: Q01DX009 (ip), vehicle: saline with Tween-80); 91 % of control under setting [7]; 91 % of control under setting [8].

These data come from PubChem BioAssay AID248 (DTP/NCI, 2004).
